Assay: Stability of peracetic acid over a single disinfection cycle at different disinfection solution temperatures, FIGS. 4A-4D
Assay type: physicochemical
Details: PAA alone or combined with builders/part (B)
From the text: FIGS. 4A-4D are graphs that show the stability of peracetic acid over the time required for a single disinfection cycle, at different disinfection solution temperatures, and as a function of the presence or absence of two different builders formulations as well as the supplemental medium (B) of the present invention.
In the following Examples 6-8, parts (A) and (B) are as described above for Examples 1-5. Builders 1 contains two sodium phosphates, benzotriazole, tetrasodium ethylene diamine tetraacetate, a sodium molybdate, sodium hydroxide, an ethoxylated polyoxypropylene, a polyacrylate, a sodium phosphate, and water. Builders 2 contains a sodium phosphate, a sodium benzotriazole and a sodium salt of ethylene diamine tetraacetic acid.
FIGS. 4A-4D show the stability of peracetic acid over the time required for a single disinfection cycle (stability), at different disinfection solution temperatures when used alone (FIG. 4A), or in combination with prior art Builders 1 (FIG. 4B) or Builders 2 (FIG. 4C) or the supplemental medium part (B) of the present invention (FIG. 4D). The trend of each line can be used to understand the kinetics of stability (or conversely, the rate and amount of degradation of PAA). […]

CC(=O)OO [PAA, peracetic acid]
stability of PAA solution: relatively stable
